In US12077503B2, “Substituted cyclic amides and their use as herbicides” (FMC CORPORATION, priority 2015, dated 2024):

How the values were obtained:
Format in all cases: in vivo
Kochia (Kochia scoparia) [1] = test: Test A preemergence
Outline: (§1)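 Preemergence directed soil spray on seeded pots, or postemergence application to plants 2–10 cm, one- to two-leaf. Solvent mixture non-phytotoxic, with surfactant. Scored ~10 d later, visually, 0–100 vs untreated.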

[2] = system: barnyardgrass (Echinochloa crus-galli); test: Test A preemergence
Outline: as §1

[3] = system: giant foxtail (Setaria faberii); test: Test A preemergence
Outline: as §1

[4] = system: pigweed (Amaranthus retroflexus); test: Test A preemergence
[5] = system: ragweed (common ragweed, Ambrosia elatior); test: Test A preemergence; settings: 500 g ai/ha, preemergence; 0 to 100 scale, 0 = no effect, 100 = complete control
Outline: as §1

[6] = system: ryegrass, Italian (Italian ryegrass, Lolium multiflorum); test: Test A preemergence
Outline: as §1

[7] = system: Galium (catchweed bedstraw, Galium aparine); test: Test A postemergence
Outline: as §1

Kochia (Kochia scoparia) [8] = test: Test A postemergence
Outline: as §1

[9] = system: barnyardgrass (Echinochloa crus-galli); test: Test A postemergence
Outline: as §1

[10] = system: blackgrass (Alopecurus myosuroides); test: Test A postemergence
Outline: as §1

corn (Zea mays) = test: Test A postemergence
Outline: as §1

[11] = system: giant foxtail (Setaria faberii); test: Test A postemergence
Outline: as §1

[12] = system: pigweed (Amaranthus retroflexus); test: Test A postemergence
Outline: as §1

[13] = system: ragweed (common ragweed, Ambrosia elatior); test: Test A postemergence
Outline: as §1

[14] = system: ryegrass, Italian (Italian ryegrass, Lolium multiflorum); test: Test A postemergence
Outline: as §1

[15] = system: wheat (Triticum aestivum); test: Test A postemergence
Outline: as §1

[16] = system: barnyardgrass (Echinochloa crus-galli); test: Test B flooded paddy test; settings: Flood, 250 g ai/ha; 0 to 100 scale where 0 is no effect and 100 is complete control; 13 to 15 d
Outline: (§2)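 Plants at 2-leaf stage flooded to 3 cm above soil, with compounds applied directly to paddy water and that depth maintained. Plants kept in greenhouse 13–15 d. Visual rating versus controls on a 0 (no effect) to 100 (complete control) scale.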

[17] = system: ducksalad (Heteranthera limosa); test: Test B flooded paddy test; settings: Flood, 250 g ai/ha; 0 to 100 scale where 0 is no effect and 100 is complete control; 13 to 15 d
Outline: as §2

rice (Oryra sativa) = test: Test B flooded paddy test; settings: Flood, 250 g ai/ha; 0 to 100 scale where 0 is no effect and 100 is complete control; 13 to 15 d
Outline: as §2

[18] = system: sedge, umbrella (small-flower umbrella sedge, Cyperus difformis); test: Test B flooded paddy test; settings: Flood, 250 g ai/ha; 0 to 100 scale where 0 is no effect and 100 is complete control; 13 to 15 d
Outline: as §2

[19] = system: lambsquarters (Chenopodium album); test: Test C preemergence; settings: for Plant response rating, Lambsquarters: scale 0 to 100, 0 no effect, 100 complete control
Outline: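 Seeds in loam-sand soil treated preemergence, or plants in peat-based medium sprayed postemergence at 2–18 cm (1- to 4-leaf stage), with compound in a non-phytotoxic solvent mixture containing surfactant. Greenhouse-held 13–15 d, then visually rated against controls on a 0–100 scale (0 = no effect, 100 = complete control); dash = not tested.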

[20] = 125 g ai/ha, Preemergence, visual injury after approximately 10 d, 0 to 100 scale where 0 is no effect and 100 is complete control
[21] = 500 g ai/ha, preemergence, 0 to 100 scale, 0 = no effect, 100 = complete control
[22] = 125 g ai/ha, postemergence, visual rating after approx. 10 d, 0 to 100 scale (0 no effect, 100 complete control)
[23] = Postemergence, 500 g ai/ha, 0 to 100 scale where 0 is no effect and 100 is complete control

## CN1CC(c2cccc(OC(F)F)c2)C(C(=O)Nc2ccccc2F)C1=O (stereo not drawn) [Compound 618]
Kochia (Kochia scoparia) [1]; [20]
  Plant response rating, Kochia: 90
Kochia (Kochia scoparia) [1]; [21]
  Plant response rating, Kochia: 90
[2]; [20]
  Plant response rating, Barnyardgrass: 90
[2]; [21]
  Plant response rating, Barnyardgrass: 90
[3]; [20]
  Plant response rating, Foxtail, Giant: 90
[3]; [21]
  Plant response rating, Foxtail, Giant: 100
[4]; [20]
  Plant response rating, Pigweed: 50
[4]; [21]
  Plant response rating, Pigweed: 90
[5]
  Plant response rating, Ragweed: 70
[6]; [20]
  Plant response rating, Ryegrass, Italian: 50
[6]; [21]
  Plant response rating, Ryegrass, Italian: 90
[7]; [22]
  Plant response rating, Galium: 50
[7]; [23]
  Plant response rating, Galium: 60
Kochia (Kochia scoparia) [8]; [22]
  Plant response rating, Kochia: 40
Kochia (Kochia scoparia) [8]; [23]
  Plant response rating, Kochia: 60
[9]; [22]
  Plant response rating, Barnyardgrass: 90
[9]; [23]
  Plant response rating, Barnyardgrass: 90
[10]; [22]
  Plant response rating, Blackgrass: 50
[10]; [23]
  Plant response rating, Blackgrass: 60
Corn (Zea mays); [22]
  Plant response rating, Corn: 80
Corn (Zea mays); [23]
  Plant response rating, Corn: 80
[11]; [22]
  Plant response rating, Foxtail, Giant: 90
[11]; [23]
  Plant response rating, Foxtail, Giant: 90
[12]; [22]
  Plant response rating, Pigweed: 0
[12]; [23]
  Plant response rating, Pigweed: 30
[13]; [22]
  Plant response rating, Ragweed: 0
[13]; [23]
  Plant response rating, Ragweed: 20
[14]; [22]
  Plant response rating, Ryegrass, Italian: 40
[14]; [23]
  Plant response rating, Ryegrass, Italian: 50
[15]; [22]
  Plant response rating, Wheat: 50
[15]; [23]
  Plant response rating, Wheat: 70
[16]
  Plant response rating, Barnyardgrass: 85
[17]
  Plant response rating, Ducksalad: 100
Rice (Oryra sativa)
  Plant response rating, Rice: 10
[18]
  Plant response rating, Sedge, Umbrella: 0
[19]; 31 g ai/ha, 0 is no effect, 100 is complete control
  Plant response rating (scale of 0 to 100), Lambsquarters: 50
[19]; 62 g ai/ha
  Plant response rating, Lambsquarters: 50
[19]; 125 g ai/ha
  Plant response rating, Lambsquarters: 70
[19]; 250 g ai/ha
  Plant response rating, Lambsquarters: 75
